Here are results for 19 compounds from ChEMBL document CHEMBL3593188, “Exploring the size adaptability of the B ring binding zone of the colchicine site of tubulin with para-nitrogen substituted isocombretastatins” (Eur J Med Chem, 2015).

Each structure is given as a SMILES string. In brackets after ≈: the same amount, converted by molar mass. Activity calls are given as the source filed them. The rule behind the calls is not given here.

A short description of series [1]: Aqueous solubility of the compound in phosphate buffer at pH 7 after 48 hrs by spectrophotometric analysis. Type of series: physicochemical.
A short description of series [2]: Inhibition of calf brain tubulin polymerization after 20 mins by spectrophotometric analysis. More on the design: species or system Bos taurus.
Series [3] has as its system HeLa. The experiment in a line: Cytotoxicity against human HeLa cells assessed as inhibition of cell proliferation after 72 hrs by XTT assay. Type of series: functional, cell-based. (In general: Tetrazolium assays rely on reduction of a dye to a coloured formazan, in cell work by metabolically active cells.)
Series [4] deals with HT-29. The experiment in a line: Cytotoxicity against human HT-29 cells assessed as inhibition of cell proliferation after 72 hrs by XTT assay. The settings on record: HT-29, 72 h. It counts as functional, cell-based.
Series [5] has as its system HL-60. Kind of series: Cytotoxicity against human HL60 cells assessed as inhibition of cell proliferation after 72 hrs by XTT assay. Type of series: functional, cell-based. The settings on record: HL-60, 72 h.
The test system of series [6] is HT-29. Kind of series: Cell cycle arrest in human HT-29 cells assessed as accumulation at G2/M phase at 100 nM after 24 hrs by propidium iodide staining-based flow cytometric analysis. It counts as functional. A general note: Flow cytometry measures light scatter and fluorescence of single cells or particles in a stream.
In series [7] the test system is HT-29. The experiment in a line: Cell cycle arrest in human HT-29 cells assessed as accumulation at G2/M phase at 50 nM after 24 hrs by propidium iodide staining-based flow cytometric analysis. It counts as functional.
In series [8] the test system is HCT-116. The experiment in a line: Induction of microtubule disruption in human HCT116 cells at 50 nM after 24 hrs by DAPI staining-based confocal microscopic analysis. Type of series: cell-based.
Series [9] has as its system HT-29. The experiment in a line: Inhibition of autophagy in human HT-29 cells assessed as accumulation of slower migrating LC3-I band at 35 nM after 24 to 72 hrs by Western blot analysis. It counts as functional, cell-based.
For series [10], the system named is HT-29. Kind of series: Inhibition of autophagy in human HT-29 cells assessed as absence of faster migrating LC3-II band decay at 35 nM after 24 to 72 hrs by Western blot analysis. It counts as functional, cell-based.

For the compound `CCn1c2ccccc2c2cc(/C(=N/O)c3cc(OC)c(OC)c(OC)c3)ccc21`, the solubility (in general, the dissolved amount per volume that the medium holds) at 48 h in series [1] stood at 4.2 µg/mL (≈ 10.4 µM). Also, the IC50 (in general, the concentration that inhibits the measured activity by half) amounted to 1.6 µM in [2], 0.1 µM in [3], 0.3 µM in [4] and 0.1 µM in series [5]. Further, the outcome in [6] was inactive.
`COc1cc(C(=O)c2ccc(N(C)C)c(C=O)c2)cc(OC)c1OC` came in with a solubility at 48 h in series [1] of 8.9 µg/mL (≈ 25.9 µM). Also, the IC50 in series [2] was above 20 µM; in series [3], above 1 µM; in series [4], above 1 µM; in series [5] it was above 1 µM.
In turn, `COc1cc(/C(=N/O)c2ccc(N(C)C)cc2)cc(OC)c1OC` had a solubility at 48 h in series [1] of 74 µg/mL (≈ 224 µM). Moreover, the half-inhibitory concentration (IC50) in [2] was above 10 µM; in series [3], 0.8 µM; in series [4] it was 10 µM; in [5], 0.6 µM.
Take `C=C(c1ccc(N(C)C)c(C=O)c1)c1cc(OC)c(OC)c(OC)c1`: the concentration in solution in series [1] (solubility at 48 h) was 107 µg/mL (≈ 313 µM). The IC50 in series [2] is above 10 µM; in [3], 0.8 µM; in series [4], above 1 µM; in [5], 0.9 µM.
On to `COc1cc(C(=O)c2ccc(N(C)C)c(N)c2)cc(OC)c1OC`, for which the IC50 is above 5 µM in series [2], 0.6 µM in series [3], 0.9 µM in series [4] and 0.7 µM in series [5].
As for `COc1cc(C(=O)c2ccc(N(C)C)cc2)cc(OC)c1OC`, the IC50 was above 20 µM in series [2], 0.09 µM in [3], 0.4 µM in series [4] and 0.2 µM in series [5].
The compound `C=C(c1ccc(N(C)C)c(C=NO)c1)c1cc(OC)c(OC)c(OC)c1` came in with a solubility at 48 h in series [1] of 123 µg/mL (≈ 345 µM). Besides, the IC50 in [2] was above 5 µM; in series [3], 0.9 µM; in series [4], above 1 µM; in [5], 1 µM.
Take `C=C(c1ccc(N(C)C)c(C#N)c1)c1cc(OC)c(OC)c(OC)c1`: in [1], the concentration in solution (solubility at 48 h) came to 84 µg/mL (≈ 248 µM). Besides, the IC50 is above 5 µM in [2], 0.4 µM in [3], 0.96 µM in series [4] and 0.8 µM in series [5].
As for `CCn1c2ccccc2c2cc(C(=O)c3cc(OC)c(OC)c(OC)c3)ccc21`, the concentration in solution in series [1] (solubility at 48 h) came to 2 µg/mL (≈ 5.14 µM). For the same compound, the IC50 in series [2] is 1.6 µM; in [3], 0.7 µM; in series [4], 0.4 µM; in [5], 0.7 µM. The outcome in series [6] was inactive.
Turning to `C=C(c1cc(OC)c(OC)c(OC)c1)c1ccc(N(C)C)c(C2OCCO2)c1`, the solubility at 48 h in series [1] worked out at 11 µg/mL (≈ 28.5 µM). For the same compound, the IC50 in [2] is above 5 µM; in series [3] it was 0.6 µM; in [4] it was above 1 µM; in series [5] it was 0.8 µM.
Regarding `C=C(c1cc(OC)c(OC)c(OC)c1)c1ccc2c(c1)c1ccccc1n2CC`, the concentration in solution in series [1] (solubility at 48 h) was 2.5 µg/mL (≈ 6.45 µM). Further, the IC50 in series [2] was determined as 0.9 µM; in series [3] it was 0.08 µM; in series [4], 0.2 µM; in [5], 0.09 µM. Moreover, the result in [6] was Active.
In series [1], `COc1cc(/C(=N/O)c2ccc(N3CCCC3)cc2)cc(OC)c1OC` yielded a solubility at 48 h of 13.7 µg/mL (≈ 38.4 µM). Moreover, the IC50 in series [2] is above 5 µM; in [3], 0.6 µM; in series [4] it was above 1 µM; in [5], 0.4 µM.
`C=C(c1ccc(N(C)C)c(N)c1)c1cc(OC)c(OC)c(OC)c1`: the half-maximal inhibitory concentration (IC50) in [2] is above 5 µM; in series [3] it was 0.5 µM; in [4], 0.6 µM; in series [5], 0.4 µM.
Take `COc1cc(C(=O)c2ccc(N(C)C)c([N+](=O)[O-])c2)cc(OC)c1OC`: the concentration in solution in [1] (solubility at 48 h) was 3.7 µg/mL (≈ 10.3 µM). Besides, the concentration for half-maximal inhibition (IC50) in series [2] was above 20 µM; in series [3] it was above 1 µM; in [4], above 1 µM; in series [5], above 1 µM.
As to `COc1ccc(/C=C\c2cc(OC)c(OC)c(OC)c2)cc1O` [COMBRETASTATIN A4], the half-inhibitory concentration (IC50) stood at 3 µM in [2] and 0.03 µM in [4].
`C=C(c1ccc(N2CCCC2)cc1)c1cc(OC)c(OC)c(OC)c1` yielded a solubility at 48 h in series [1] of 1.3 µg/mL (≈ 3.83 µM). In addition, the IC50 came to 1.1 µM in series [2], 0.2 µM in [3], 0.6 µM in series [4] and 0.4 µM in series [5]. Besides, the outcome in series [6] was Active.
With `C=C(c1ccc(N(C)C)cc1)c1cc(OC)c(OC)c(OC)c1`, the solubility at 48 h in series [1] came to 30 µg/mL (≈ 95.7 µM). In addition, the IC50 stood at 1.9 µM in series [2], 0.04 µM in series [3], 0.07 µM in series [4] and 0.01 µM in series [5]. The Activity in series [7] is above 85%. Besides, the result in series [8] was Active. Further, the inhibition result in series [9] and in series [10] was “Active” in each case.
Regarding `COc1cc(C(=O)c2ccc(N3CCCC3)cc2)cc(OC)c1OC`, the concentration in solution in series [1] (solubility at 48 h) was 2.6 µg/mL (≈ 7.62 µM). The IC50 in [2] is above 5 µM; in [3] it was 0.8 µM; in [4], above 1 µM; in series [5], 0.8 µM.
In turn, `C/C=C(/c1cc(OC)c(OC)c(OC)c1)c1ccc2c(c1)c1ccccc1n2CC` returned a solubility at 48 h in [1] of 1.8 µg/mL (≈ 4.48 µM). In addition, the concentration for half-maximal inhibition (IC50) worked out at 1.5 µM in [2], 0.7 µM in series [3], 0.56 µM in series [4] and 0.4 µM in [5]. For the same compound, in series [6], the result was inactive.
